Assay results from patent publication US9687498B1, “Composition for preventing or treating muscle wasting-related disease and use thereof” (Samsung Electronics Co., Ltd., priority 2015, dated 2017).
Where a name gives a salt, the structure may show the parent alone.

Experiments:
Assay type in all cases: cell-based, mouse
[1] = tested on: myostatin; test: Real time PCR of myostatin mRNA in differentiated C2C12 muscle cells; settings: 10 μM compound in 0.1% DMSO, about 24 hours, normalized to GAPDH, vs DMSO negative control
Procedure: (§1) In detail, C2C12 cell line (mouse gastrocnemius muscle, ATCC® CRL-1772™) was seeded in a 10% FBS/DMEM culture medium. When the cells reached about 70% confluence in 5% CO2 incubator at 37° C., the culture medium was replaced by 2% FBS/DMEM, and further cultured for about 4 days to induce complete differentiation into muscle cells. The C2C12 cell line is a mouse myoblast cell line obtained through continuous culture of myoblasts cultured from the gastrocnemius muscle of C3H mice.
(§2) When the C2C12 cells were completely differentiated, the medium was removed, and 10 μM (in 0.1% DMSO) of active compound for screening was added to the cultured muscle cells, followed by incubation under conditions of 37° C. and 5% CO2 for about 24 hours. As the active compound for screening, a library of a total of 700 compounds (Selleck Chemicals) was used. Thereafter, the cultured muscle cells were washed with PBS to obtain muscle cells. As a negative control, muscle cells treated with DMSO (Sima-Aldrich), instead of the active compound for screening, were used. As a positive control, muscle cells treated with forskolin were used.
(§3) Total RNA was separated according to the manufacturer's protocol by adding a Trizol reagent (Invitrogen) to the obtained cells. cDNA was synthesized from the separated total RNA using reverse transcriptase. The mRNA levels of PGC-1 alpha 4 isoform and myostatin were quantified using a real time PCR (MyiQPCR instrument, BioRad), which is a device for measuring SYBR Green. The resulting amounts were then normalized to the amount of GAPDH mRNA.
(§4) After normalization of the values obtained from the amplification to GAPDH gene, relative mRNA expression levels of PGC-1 alpha 4 isoform and myostatin were quantified. The relative mRNA expression levels (Arbitrary Unit; AU) of PGC-1 alpha 4 isoform and myostatin thus quantified are shown in FIGS. 2A and 2B, respectively (*: p<0.05 vs. negative control).

[2] = tested on: C2C12 cells; test: Muscle fiber diameter of differentiated C2C12 muscle cells (microscope); settings: 100 μM compound, about 24 hours, vs DMSO negative control
Procedure: as §1
Muscle fiber-protecting effects of the compounds selected in 1. were examined by measuring the diameter of muscle fiber according to addition of the selected compounds.
As described in Example 1.1, C2C12 cells were completely differentiated to muscle cells. After removal of the medium, 4 ml of a fresh medium containing each 100 μM of isotretinoin (Roche), vismodegib (Genentech), or lincomycin hydrochloride (Sima-Aldrich) was added, and the cells were cultured in a 5% CO2 incubator at 37° C. for about 24 hours. As a negative control, muscle cells treated with DMSO (Sima-Aldrich), instead of the selected compounds, were used. As a positive control, muscle cells treated with forskolin were used.
Thereafter, the cultured cells were washed with PBS. Muscle fibers of the cells were photographed with a microscope (×200), and diameter (μm) of the muscle fiber was measured.

[3] = tested on: PGC-1 alpha 4 isoform; test: Real time PCR of PGC-1 alpha 4 isoform mRNA in differentiated C2C12 muscle cells; settings: 10 μM compound in 0.1% DMSO, about 24 hours, normalized to GAPDH, vs DMSO negative control
Procedure: as §1, §2, §3, §4

| SMILES | level (relative mRNA expression) of myostatin compared to the negative control [1] | muscle fiber diameter compared to the negative control [2] | level (relative mRNA expression) of PGC-1 alpha 4 isoform compared to the negative control [3] |
| --- | --- | --- | --- |
| CCC[C@@H]1C[C@@H](C(=O)N[C@@H]([C@H]2O[C@H](SC)[C@H](O)[C@@H](O)[C@H]2O)[C@@H](C)O)N(C)C1 [lincomycin hydrochloride, (2S,4R)-N-[(1R,2R)-2-hydroxy-1-[(2R,3R,4S,5R,6R)-3,4,5-trihydroxy-6-(methylsulfanyl)oxan-2-yl]propyl]-1-methyl-4-propylpyrrolidine-2-carboxamide] | decreasing | increased | increasing |
| CC1=C(/C=C/C(C)=C/C=C/C(C)=C\C(=O)O)C(C)(C)CCC1 [isotretinoin, (2Z,4E,6E,8E)-3,7-dimethyl-9-(2,6,6-trimethylcyclohex-1-en-1-yl)nona-2,4,6,8-tetraenoic acid] | decreasing | increased | increasing |
| CS(=O)(=O)c1ccc(C(=O)Nc2ccc(Cl)c(-c3ccccn3)c2)c(Cl)c1 [vismodegib, 2-chloro-N-(4-chloro-3-pyridin-2-ylphenyl)-4-methylsulfonylbenzamide] | decreasing | increased | increasing |
